# Assay results published in patent EP3061750A1, “PYRAZOLE AMIDE COMPOUND CONTAINING DIPHENYL ETHER, AND APPLICATION THEREOF, AND PESTICIDE COMPOSITION” (Central China Normal University, priority 2013, dated 2015).
# Like-named read-outs stand apart in the source and are kept apart here.
# Key:
# [1] = system: Cucumber powdery mildew (Sphaerotheca uliginea); assay: pot in vivo assay of bactericidal activity, cucumber powdery mildew; conditions: for pest or weed control at 200 µg/mL: Cucumis sativus, read-out: Efficacy(%) cucumber powery mildew
# Description: (§1) This test is used to determine the bactericidal activity of the compounds prepared in Example 1, Preparation Examples 1 and 2.
# (§2) The targets used in the test example are rice sheath blight and cucumber powdery mildew.
# (§3) Test Method: According to "Standard Practice for determination of pesticide biological activity (SOP)", pyrazole amide compound containing diphenyl ether was dispensed to 5% emulsifiable concentrates (hereinafter referred to as 5% EC), […] method (pot in vivo assay). The screening results on the two test targets of the compounds prepared in Example 1, Preparation Examples 1 and 2 were shown in Table 4.
# Cucumber powdery mildew (Sphaerotheca uliginea)
# A cucumber seedling with uniform growth in true leaf stage was chosen, and dried in shade for 24h after spray treatment. Fresh cucumber powdery mildew spores on the cucumber leaves were collected and washed, and filtered through a double gauze to prepare a spore suspension with concentration of about 100,000 / ml, then spray inoculation was applied. The test materials inoculated were moved into artificial climate with relative humidity of 60-70% and temperature of 21-23 °C (indoor lighting), after about 10 days, investigating and grading were carried out according to the incidence of the blank control, and the control effect was calculated according to the disease index.
# (§4) Investigation method and grading standard adopted "Guidelines for the field efficacy trials of pesticides", and the control effect was calculated with the disease index. The disease index = Σ(number of diseased leaves at each grade×relative grade value) × 100/(total number of leaves×9); [formula] Control effect (%) = (disease index of control−disease index of treated) × 100/disease index of control. [formula]
# [2] = system: Rice sheath blight (Rhizoctonia solani); assay: pot in vivo assay of bactericidal activity, rice sheath blight; conditions: for pest or weed control at 200 µg/mL: Rhizoctonia solani, read-out: Efficacy(%) rice sheath blight
# Description: as §1, §2
# as §3, with “EC), the” for “EC),”
# Rice sheath blight (Rhizoctonia solani)
# Two potted rice seedlings with uniform growth in true leaf stage were chosen, and dried by air after spray treatment. The side of bacteria cake with mycelium was closely attached on the leaves, after cultured at 22-26 °C under dark light in a moisture preserving manner for 24h, then cultured with natural light for about 4 days. The diameter of disease spot of each inoculating point was measured by using a caliper after the control material was fully attacked by disease, and the control effect was calculated.
# as §4
# succinate dehydrogenase = target: T1, succinate dehydrogenase (Sus scrofa, UniProt A5GZW8+D0VWV4+Q007T0); assay: inhibitory activity on succinate dehydrogenase (DCIP reduction at 600 nm); format: biochemical, pig
# T1 construct: succinate dehydrogenase, which was isolated from pig hearts; from tissue; host or cells: pig heart
# T1 sequence (Q007T0 29-280): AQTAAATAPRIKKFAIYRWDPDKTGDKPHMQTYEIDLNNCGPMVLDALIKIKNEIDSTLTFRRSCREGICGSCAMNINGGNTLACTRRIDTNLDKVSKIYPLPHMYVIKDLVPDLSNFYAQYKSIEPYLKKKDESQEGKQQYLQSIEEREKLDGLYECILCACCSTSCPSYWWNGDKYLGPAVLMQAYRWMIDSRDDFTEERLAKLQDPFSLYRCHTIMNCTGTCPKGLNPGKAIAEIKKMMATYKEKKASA
# T1 sequence (D0VWV4 30-169): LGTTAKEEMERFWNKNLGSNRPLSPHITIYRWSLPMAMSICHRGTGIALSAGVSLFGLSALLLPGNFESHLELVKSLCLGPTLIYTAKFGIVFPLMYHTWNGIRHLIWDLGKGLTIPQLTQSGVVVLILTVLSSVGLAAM
# T1 sequence (A5GZW8 57-159 limits assumed): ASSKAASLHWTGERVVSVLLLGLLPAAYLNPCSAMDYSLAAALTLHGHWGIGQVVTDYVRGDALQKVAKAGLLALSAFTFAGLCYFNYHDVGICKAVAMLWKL
# T1 sequence (Q0QF01 43-664 partner): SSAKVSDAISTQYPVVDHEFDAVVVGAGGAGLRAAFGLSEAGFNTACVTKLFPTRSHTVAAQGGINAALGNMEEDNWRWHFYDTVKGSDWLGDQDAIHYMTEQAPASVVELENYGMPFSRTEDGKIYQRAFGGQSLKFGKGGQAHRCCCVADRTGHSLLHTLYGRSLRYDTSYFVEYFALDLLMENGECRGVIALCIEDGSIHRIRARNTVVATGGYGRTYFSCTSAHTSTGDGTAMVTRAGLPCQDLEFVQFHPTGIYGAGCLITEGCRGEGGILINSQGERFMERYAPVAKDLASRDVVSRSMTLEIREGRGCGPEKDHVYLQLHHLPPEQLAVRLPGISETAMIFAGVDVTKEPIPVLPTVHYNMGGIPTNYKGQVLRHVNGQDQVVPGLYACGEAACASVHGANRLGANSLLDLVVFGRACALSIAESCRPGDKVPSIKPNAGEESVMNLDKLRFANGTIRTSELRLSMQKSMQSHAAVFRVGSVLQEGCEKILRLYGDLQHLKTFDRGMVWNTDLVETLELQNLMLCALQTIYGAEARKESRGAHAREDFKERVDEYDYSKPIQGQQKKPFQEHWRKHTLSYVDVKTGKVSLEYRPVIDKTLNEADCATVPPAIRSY
# Protocol: This test was used to determine the inhibitory activity on the succinate dehydrogenase of the compounds prepared in Example 1, Preparation Examples 1 and 2 .
# The enzyme used in the test example was succinate dehydrogenase, which was isolated from pig hearts.
# Test Method: total volume was 1.8ml, the system comprised 100mM Na2HPO4-NaH2PO4 buffer (pH7.4), 0.3mM EDTA, 20mM sodium succinate, 53µM DCIP (2,6-dichloro indophenol sodium), 2nM succinate dehydrogenase. In water bath with 23 °C of constant temperature and 600rpm magnetic stirring, the reduction of the light absorption of substrate DCIP was monitored at a wavelength of 600nm, the experimental points within the linear range were collected, that is, the experimental points in which the consumption of substrate was controlled not exceeding 5% were collected. The molar extinction coefficient of DCIP was 21mM^-1cm^-1. The reduction amount of DCIP during the reaction time was calculated and linear slope was fitted, and then the initial velocity of the reaction was obtained by deducting the baseline slope.
# [3] = concentration 200 mg/L, 5% EC, pot
# [4] = concentration 0.03 µM, read-out: inhibition ratio(%)
# [5] = concentration 0.05 µM, read-out: inhibition ratio(%)
# [6] = concentration 0.1 µM, read-out: inhibition ratio(%)
# [7] = concentration 0.2 µM, read-out: inhibition ratio(%)
# [8] = concentration 0.5 µM, read-out: inhibition ratio(%)
# [9] = concentration 1 µM, read-out: inhibition ratio(%)
# [10] = concentration 10 µM, read-out: inhibition ratio(%)
# [11] = concentration 50 µM, read-out: inhibition ratio(%)
smiles,measurement,setting,value
Cn1cc(C(=O)Nc2ccccc2Oc2ccc(C(F)(F)F)cc2Cl)c(C(F)F)n1 [Compound II],pest or weed control at 200 µg/mL,[1]; [3],100%
same,efficacy on cucumber powery mildew(%),[1]; concentration 6.25 mg/L,0%
same,efficacy on cucumber powery mildew(%),[1]; concentration 12.5 mg/L,66.67%
same,efficacy on cucumber powery mildew(%),[1]; concentration 25 mg/L,94.44%
same,efficacy on cucumber powery mildew(%),[1]; concentration 50 mg/L,100%
same,efficacy on cucumber powery mildew(%),[1]; concentration 100 mg/L,100%
same,pest or weed control at 200 µg/mL,[2]; [3],100%
same,efficacy on rice sheath bilght(%),[2]; concentration 0.75 mg/L,43.75%
same,efficacy on rice sheath bilght(%),[2]; concentration 1.5 mg/L,55.34%
same,efficacy on rice sheath bilght(%),[2]; concentration 3.125 mg/L,68.68%
same,efficacy on rice sheath bilght(%),[2]; concentration 6.25 mg/L,70.43%
same,efficacy on rice sheath bilght(%),[2]; concentration 12.5 mg/L,94.62%
same,efficacy on rice sheath bilght(%),[2]; concentration 25 mg/L,98.66%
same,efficacy on rice sheath bilght(%),[2]; concentration 50 mg/L,100%
same,efficacy on rice sheath bilght(%),[2]; concentration 100 mg/L,100%
same,IC50,succinate dehydrogenase,48.4 ± 1.71 nM
same,inhibition at 0.01 µM,"succinate dehydrogenase; concentration 0.01 µM, read-out: inhibition ratio(%)",11.7%
same,inhibition at 0.02 µM,"succinate dehydrogenase; concentration 0.02 µM, read-out: inhibition ratio(%)",20.8%
same,inhibition at 0.03 µM,succinate dehydrogenase; [4],31.8%
same,inhibition at 0.05 µM,succinate dehydrogenase; [5],47.1%
same,inhibition at 0.1 µM,succinate dehydrogenase; [6],60.7%
same,inhibition at 0.2 µM,succinate dehydrogenase; [7],75.3%
same,inhibition at 0.5 µM,succinate dehydrogenase; [8],83.8%
same,inhibition at 1 µM,succinate dehydrogenase; [9],91.4%
same,inhibition at 10 µM,succinate dehydrogenase; [10],97.9%
same,inhibition at 50 µM,succinate dehydrogenase; [11],100%
Cn1cc(C(=O)Nc2ccccc2Oc2ccccc2Cl)c(C(F)(F)F)n1 [III-8],pest or weed control at 200 µg/mL,[1],0%
same,pest or weed control at 200 µg/mL,[2],81.9%
same,IC50,succinate dehydrogenase,1980 ± 1390 nM
Cn1cc(C(=O)Nc2ccccc2Oc2ccc(C(F)(F)F)cc2)c(C(F)(F)F)n1 [III-11],pest or weed control at 200 µg/mL,[1],0%
same,pest or weed control at 200 µg/mL,[2],56.3%
same,IC50,succinate dehydrogenase,3170 ± 1120 nM
Cn1cc(C(=O)Nc2ccccc2Oc2ccc(Cl)cc2Cl)c(C(F)F)n1 [Compound I],pest or weed control at 200 µg/mL,[1],100%
same,efficacy on cucumber powery mildew(%),[1]; concentration 100 mg/L,0%
same,pest or weed control at 200 µg/mL,[2],100%
same,efficacy on rice sheath bilght(%),[2]; concentration 1 mg/L,20.74%
same,efficacy on rice sheath bilght(%),[2]; concentration 1.5 mg/L,45.38%
same,efficacy on rice sheath bilght(%),[2]; concentration 3.125 mg/L,65.37%
same,efficacy on rice sheath bilght(%),[2]; concentration 6.25 mg/L,68.77%
same,efficacy on rice sheath bilght(%),[2]; concentration 12.5 mg/L,81.72%
same,efficacy on rice sheath bilght(%),[2]; concentration 25 mg/L,95%
same,efficacy on rice sheath bilght(%),[2]; concentration 50 mg/L,98%
same,efficacy on rice sheath bilght(%),[2]; concentration 100 mg/L,100%
same,IC50,succinate dehydrogenase,401 ± 10.3 nM
same,inhibition at 0.03 µM,succinate dehydrogenase; read-out: inhibition ratio(%),18.3%
same,inhibition at 0.05 µM,succinate dehydrogenase; read-out: inhibition ratio(%),21.6%
same,inhibition at 0.1 µM,succinate dehydrogenase; read-out: inhibition ratio(%),27%
same,inhibition at 0.2 µM,succinate dehydrogenase; read-out: inhibition ratio(%),37.4%
same,inhibition at 0.3 µM,succinate dehydrogenase; read-out: inhibition ratio(%),42.1%
same,inhibition at 0.5 µM,succinate dehydrogenase; read-out: inhibition ratio(%),52.3%
same,inhibition at 1 µM,succinate dehydrogenase; read-out: inhibition ratio(%),66.9%
same,inhibition at 10 µM,succinate dehydrogenase; read-out: inhibition ratio(%),74.4%
same,inhibition at 50 µM,succinate dehydrogenase; read-out: inhibition ratio(%),73%
COc1cc(Oc2ccccc2NC(=O)c2cn(C)nc2C(F)(F)F)cc(OC)c1OC [III-4],pest or weed control at 200 µg/mL,[1],0%
same,pest or weed control at 200 µg/mL,[2],0%
same,IC50,succinate dehydrogenase,> 100000 nM
"Cn1cc(C(=O)Nc2ccccc2Oc2ccc(C(C)(C)C)cc2)c(C(F)F)n1 [Comparative compound 21, reference compound]",pest or weed control at 200 µg/mL,[1],0%
same,pest or weed control at 200 µg/mL,[2],22.3%
same,IC50,succinate dehydrogenase,1180 ± 13.7 nM
same,inhibition at 0.1 µM,succinate dehydrogenase; read-out: inhibition ratio(%),0%
same,inhibition at 0.2 µM,succinate dehydrogenase; read-out: inhibition ratio(%),24.7%
same,inhibition at 0.3 µM,succinate dehydrogenase; read-out: inhibition ratio(%),27.4%
same,inhibition at 0.5 µM,succinate dehydrogenase; read-out: inhibition ratio(%),34.6%
same,inhibition at 1 µM,succinate dehydrogenase; read-out: inhibition ratio(%),46.9%
same,inhibition at 3 µM,succinate dehydrogenase; read-out: inhibition ratio(%),60.7%
same,inhibition at 10 µM,succinate dehydrogenase; read-out: inhibition ratio(%),79.4%
same,inhibition at 50 µM,succinate dehydrogenase; read-out: inhibition ratio(%),80.8%
"Cc1nc(C(F)(F)F)c(C(=O)Nc2c(Br)cc(OC(F)(F)F)cc2Br)s1 [Thifluzamide, reference compound]",efficacy on cucumber powery mildew(%),[1]; concentration 12.5 mg/L,0%
same,efficacy on cucumber powery mildew(%),[1]; concentration 25 mg/L,22.22%
same,efficacy on cucumber powery mildew(%),[1]; concentration 50 mg/L,62.96%
same,efficacy on cucumber powery mildew(%),[1]; concentration 100 mg/L,100%
same,efficacy on rice sheath bilght(%),[2]; concentration 1.5 mg/L,0%
same,efficacy on rice sheath bilght(%),[2]; concentration 3.25 mg/L,13.38%
same,efficacy on rice sheath bilght(%),[2]; concentration 6.25 mg/L,54.30%
same,efficacy on rice sheath bilght(%),[2]; concentration 12.5 mg/L,61.36%
same,efficacy on rice sheath bilght(%),[2]; concentration 25 mg/L,81.85%
same,efficacy on rice sheath bilght(%),[2]; concentration 50 mg/L,100%
same,efficacy on rice sheath bilght(%),[2]; concentration 100 mg/L,100%
same,inhibition at 0.03 µM,succinate dehydrogenase; [4],0%
same,inhibition at 0.05 µM,succinate dehydrogenase; [5],9.21%
same,inhibition at 0.1 µM,succinate dehydrogenase; [6],29.7%
same,inhibition at 0.2 µM,succinate dehydrogenase; [7],47.6%
same,inhibition at 0.3 µM,"succinate dehydrogenase; concentration 0.3 µM, read-out: inhibition ratio(%)",59.5%
same,inhibition at 0.5 µM,succinate dehydrogenase; [8],71.7%
same,inhibition at 1 µM,succinate dehydrogenase; [9],77.9%
same,inhibition at 10 µM,succinate dehydrogenase; [10],94.5%
same,inhibition at 50 µM,succinate dehydrogenase; [11],96.7%
same,IC50,"succinate dehydrogenase; succinate dehydrogenase isolated from pig hearts, pH7.4, 23 °C, read-out: IC50",200 ± 12.1 nM
Cn1cc(C(=O)Nc2ccccc2Oc2ccc(C#N)cc2)c(C(F)F)n1 [III-7],pest or weed control at 200 µg/mL,[1],0%
same,pest or weed control at 200 µg/mL,[2],45%
same,IC50,succinate dehydrogenase,> 100000 nM
Cn1cc(C(=O)Nc2ccccc2Oc2ccc(Cl)cc2)c(C(F)F)n1 [III-10],pest or weed control at 200 µg/mL,[1],0%
same,pest or weed control at 200 µg/mL,[2],68.3%
same,IC50,succinate dehydrogenase,2020 ± 1150 nM
Cn1cc(C(=O)Nc2ccccc2Oc2ccc(Cl)cc2Cl)c(C(F)(F)F)n1 [III-2],pest or weed control at 200 µg/mL,[1],72.2%
same,pest or weed control at 200 µg/mL,[2],0%
same,IC50,succinate dehydrogenase,2700 ± 1370 nM
Cn1cc(C(=O)Nc2ccccc2Oc2ccc(C(F)(F)F)cc2)c(C(F)F)n1 [III-12],pest or weed control at 200 µg/mL,[1],0%
same,pest or weed control at 200 µg/mL,[2],72.3%
same,IC50,succinate dehydrogenase,1620 ± 1350 nM
